Two compounds from doi:10.1101/2025.03.26.645513v1 (biorxiv, 2025) can be followed below.

Holding throughout (experiment): acid ninhydrin cysteine assay, A560
Test [1] deals with T1, SaCysK (Staphylococcus aureus, UniProt P63871).
T1 sequence (P63871 1-310): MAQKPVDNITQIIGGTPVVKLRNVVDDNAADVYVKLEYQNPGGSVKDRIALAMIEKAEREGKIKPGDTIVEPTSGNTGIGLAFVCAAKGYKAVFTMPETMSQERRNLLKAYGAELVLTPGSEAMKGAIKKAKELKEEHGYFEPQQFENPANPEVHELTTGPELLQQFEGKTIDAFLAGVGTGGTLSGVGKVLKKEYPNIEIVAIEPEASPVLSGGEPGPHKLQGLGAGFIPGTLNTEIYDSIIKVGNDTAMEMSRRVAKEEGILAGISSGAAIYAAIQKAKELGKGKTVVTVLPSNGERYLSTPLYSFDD
It is filed as biochemical. To be noted: substrate inhibition constant, MOPS, 37 °C, no glycerol.

The next test has as its target NgCysK (Neisseria gonorrhoeae, UniProt Q5F9Q2). To be noted: read-out: Khalf; 10 mM OAS; MOPS; 37 °C; no glycerol; cooperative.
The target of test [2] is T1, SaCysK. Conditions: 10 mM OAS; MOPS; 37 °C; no glycerol.

Chain of NgCysK (Q5F9Q2 1-310): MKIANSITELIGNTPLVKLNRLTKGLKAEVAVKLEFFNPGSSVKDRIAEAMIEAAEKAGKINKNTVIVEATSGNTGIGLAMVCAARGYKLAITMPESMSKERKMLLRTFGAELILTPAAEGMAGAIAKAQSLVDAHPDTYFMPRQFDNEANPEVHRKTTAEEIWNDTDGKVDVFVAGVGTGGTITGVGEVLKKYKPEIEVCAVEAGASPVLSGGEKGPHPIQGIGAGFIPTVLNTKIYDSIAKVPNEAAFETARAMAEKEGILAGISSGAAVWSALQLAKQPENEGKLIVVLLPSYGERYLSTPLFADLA

At SaCysK [1] (15 mM Na2S), `CC(=O)OC[C@H](N)C(=O)O` [O-acetylserine] displayed a Ki of 6.265 ± 2.489 mM.
`S` [sodium sulfide] gave a Ki on SaCysK [1] (10 mM OAS) of 15.970 ± 12.793 mM. Besides, the Km on NgCysK amounted to 23.6 ± 10.8 mM; on SaCysK [2] it was 2.31 ± 3.57 mM.
